# From patent publication US12642797B2, “Coated granule, solid dispersion, and preparation containing vortioxetine hydrobromide for oral taste masking” (Seasons Biotechnology (Taizhou) Co., Ltd., priority 2019, dated 2026)
# Where a name gives a salt, the structure may show the parent alone.
# How the values were obtained:
# [1] = tested on: tongue; experiment: Comparative Example 1: comparison of taste of different vortioxetine salts (10 subjects, 30 attempts); settings: converted to the same amount of C18H22N2S
# Experimental: The vortioxetine lactate salt, vortioxetine hydrobromide and vortioxetine hemihydrobromide equivalent to 5 mg of vortioxetine respectively over 100 mesh powders were put directly in front of the upper part of the tongue for one minute. There were 10 subjects in each salt-type group, and each subject randomly tried each salt-type 3 times. After trying one salt-type taste, rinsed your mouth, and try another salt-type after there was no irritation. After trying the taste, record the bitterness level and tongue irritation, spit it out a few seconds later, rinse your mouth, record the time for the irritation to subside, eat 1-1.5 hours later, and record the irritation again.
# [2] = tested on: oral cavity and tongue; experiment: Taste and irritation test by subjects (self-made sample vs reference sample); assay type: in vivo, human; settings: for Instantaneous irritation: 0-1 minute; for Instantaneous irritation / Delayed irritation: powder equivalent to 20 mg of vortioxetine tasted, hemihydrobromide
# Experimental: In the examples, the taste masking effects of test samples were evaluated by the subject's perception of the bitterness and irritation of the oral cavity and tongue. The Taste and Irritation Classification Tested by the Subjects: [table]
# [3] = Subject 1, listed as Reference sample (1a)
# [4] = Subject 1, listed as Reference sample (1e)
# [5] = Subject 1, listed as Reference sample (2a)
# [6] = Subject 1, listed as Reference sample (2c)
# [7] = Subject 1, listed as Reference sample (3a)
# [8] = Subject 1, listed as Reference sample (3b)
# [9] = Subject 1, listed as Reference sample (3c)
# [10] = Subject 1, listed as Reference sample (4a)
# [11] = Subject 1, listed as Reference sample (1d)
# [12] = Subject 1, listed as Reference sample (2d)
# [13] = Subject 2, listed as Reference sample (1a)
# [14] = Subject 2, listed as Reference sample (1e)
# [15] = Subject 2, listed as Reference sample (2a)
# [16] = Subject 2, listed as Reference sample (2c)
# [17] = Subject 2, listed as Reference sample (3a)
# [18] = Subject 2, listed as Reference sample (3b)
# [19] = Subject 2, listed as Reference sample (3c)
# [20] = Subject 2, listed as Reference sample (4a)
# [21] = Subject 2, listed as Reference sample (1d)
# [22] = Subject 2, listed as Reference sample (2d)
# [23] = Subject 3, listed as Reference sample (1a)
# [24] = Subject 3, listed as Reference sample (1e)
# [25] = Subject 3, listed as Reference sample (2a)
# [26] = Subject 3, listed as Reference sample (2c)
# [27] = Subject 3, listed as Reference sample (3a)
# [28] = Subject 3, listed as Reference sample (3b)
# [29] = Subject 3, listed as Reference sample (3c)
# [30] = Subject 3, listed as Reference sample (4a)
# [31] = Subject 3, listed as Reference sample (1d)
# [32] = Subject 3, listed as Reference sample (2d)
structure (smiles),measurement,setting,value
Cc1ccc(Sc2ccccc2N2CCNCC2)c(C)c1 [vortioxetine hemihydrobromide],"Irritation compared with vortioxetine hydrobromide, in words",[1],significantly less irritating
same,"Irritation, overall comparison in words","[2]; 5 subjects, treated powder vs untreated 100-mesh salt powder, each equivalent to 20 mg vortioxetine",obvious and could hardly be tolerated
same,Instantaneous irritation,[2]; [3],"++ (+ + Irritating, tolerable)"
same,Instantaneous irritation,[2]; [4],"++ (+ + Irritating, tolerable)"
same,Instantaneous irritation,[2]; [5],"+++ (+ + + Strong irritation, intolerable)"
same,Instantaneous irritation,[2]; [6],"+++ (+ + + Strong irritation, intolerable)"
same,Instantaneous irritation,[2]; [7],"+++ (+ + + Strong irritation, intolerable)"
same,Instantaneous irritation,[2]; [8],"+++ (+ + + Strong irritation, intolerable)"
same,Instantaneous irritation,[2]; [9],"+++ (+ + + Strong irritation, intolerable)"
same,Instantaneous irritation,[2]; [10],"+++ (+ + + Strong irritation, intolerable)"
same,Instantaneous irritation,[2]; [11],"++ (+ + Irritating, tolerable)"
same,Instantaneous irritation,[2]; [12],"++ (+ + Irritating, tolerable)"
same,Delayed irritation,[2]; [3],>30 min
same,Delayed irritation,[2]; [4],15 to 30 min
same,Delayed irritation,[2]; [5],>30 min
same,Delayed irritation,[2]; [6],>30 min
same,Delayed irritation,[2]; [7],>30 min
same,Delayed irritation,[2]; [8],>30 min
same,Delayed irritation,[2]; [9],>30 min
same,Delayed irritation,[2]; [10],>30 min
same,Delayed irritation,"[2]; Subject 1, listed as Reference sample (5)",15 to 30 min
same,Delayed irritation,"[2]; Subject 1, listed as Reference sample (6)",15 to 30 min
same,Delayed irritation,"[2]; Subject 1, listed as Reference sample (7a)",>30 min
same,Delayed irritation,"[2]; Subject 1, listed as Reference sample (8a)",15 to 30 min
same,Delayed irritation,"[2]; Subject 1, listed as Reference sample (8b)",15 to 30 min
same,Delayed irritation,[2]; [11],15 to 30 min
same,Delayed irritation,[2]; [12],>30 min
same,Instantaneous irritation,[2]; [13],"+++ (+ + + Strong irritation, intolerable)"
same,Instantaneous irritation,[2]; [14],"+++ (+ + + Strong irritation, intolerable)"
same,Instantaneous irritation,[2]; [15],"++ (+ + Irritating, tolerable)"
same,Instantaneous irritation,[2]; [16],"++ (+ + Irritating, tolerable)"
same,Instantaneous irritation,[2]; [17],"++ (+ + Irritating, tolerable)"
same,Instantaneous irritation,[2]; [18],"++ (+ + Irritating, tolerable)"
same,Instantaneous irritation,[2]; [19],"++ (+ + Irritating, tolerable)"
same,Instantaneous irritation,[2]; [20],"++ (+ + Irritating, tolerable)"
same,Instantaneous irritation,[2]; [21],"+++ (+ + + Strong irritation, intolerable)"
same,Instantaneous irritation,[2]; [22],"++ (+ + Irritating, tolerable)"
same,Delayed irritation,[2]; [13],>30 min
same,Delayed irritation,[2]; [14],>30 min
same,Delayed irritation,[2]; [15],15 to 30 min
same,Delayed irritation,[2]; [16],15 to 30 min
same,Delayed irritation,[2]; [17],15 to 30 min
same,Delayed irritation,[2]; [18],15 to 30 min
same,Delayed irritation,[2]; [19],15 to 30 min
same,Delayed irritation,[2]; [20],15 to 30 min
same,Delayed irritation,"[2]; Subject 2, listed as Reference sample (5)",>30 min
same,Delayed irritation,"[2]; Subject 2, listed as Reference sample (6)",>30 min
same,Delayed irritation,"[2]; Subject 2, listed as Reference sample (7a)",15 to 30 min
same,Delayed irritation,"[2]; Subject 2, listed as Reference sample (8a)",15 to 30 min
same,Delayed irritation,"[2]; Subject 2, listed as Reference sample (8b)",15 to 30 min
same,Delayed irritation,[2]; [21],>30 min
same,Delayed irritation,[2]; [22],15 to 30 min
same,Instantaneous irritation,[2]; [23],"+++ (+ + + Strong irritation, intolerable)"
same,Instantaneous irritation,[2]; [24],"+++ (+ + + Strong irritation, intolerable)"
same,Instantaneous irritation,[2]; [25],"+++ (+ + + Strong irritation, intolerable)"
same,Instantaneous irritation,[2]; [26],"+++ (+ + + Strong irritation, intolerable)"
same,Instantaneous irritation,[2]; [27],"++ (+ + Irritating, tolerable)"
same,Instantaneous irritation,[2]; [28],"++ (+ + Irritating, tolerable)"
same,Instantaneous irritation,[2]; [29],"++ (+ + Irritating, tolerable)"
same,Instantaneous irritation,[2]; [30],"+++ (+ + + Strong irritation, intolerable)"
same,Instantaneous irritation,[2]; [31],"+++ (+ + + Strong irritation, intolerable)"
same,Instantaneous irritation,[2]; [32],"+++ (+ + + Strong irritation, intolerable)"
same,Delayed irritation,[2]; [23],>30 min
same,Delayed irritation,[2]; [24],>30 min
same,Delayed irritation,[2]; [25],1 to 15 min
same,Delayed irritation,[2]; [26],1 to 15 min
same,Delayed irritation,[2]; [27],>30 min
same,Delayed irritation,[2]; [28],>30 min
same,Delayed irritation,[2]; [29],>30 min
same,Delayed irritation,[2]; [30],>30 min
same,Delayed irritation,"[2]; Subject 3, listed as Reference sample (5)",15 to 30 min
same,Delayed irritation,"[2]; Subject 3, listed as Reference sample (6)",15 to 30 min
same,Delayed irritation,"[2]; Subject 3, listed as Reference sample (7a)",15 to 30 min
same,Delayed irritation,"[2]; Subject 3, listed as Reference sample (8a)",>30 min
same,Delayed irritation,"[2]; Subject 3, listed as Reference sample (8b)",>30 min
same,Delayed irritation,[2]; [31],>30 min
same,Delayed irritation,[2]; [32],1 to 15 min
same,Instantaneous irritation,"[2]; Subject 4, listed as Reference sample (1a)","++ (+ + Irritating, tolerable)"
